From article PMC4194318, “Genetic and pharmacological evidence that G2019S LRRK2 confers a hyperkinetic phenotype, resistant to motor decline associated with aging” (Neurobiology of Disease, 2014)
pIC50: −log10 of the molar value.

What was measured:
[1] = molecular target: T1, LRRK2 (leucine-rich repeat kinase 2) (Mus musculus, UniProt Q5S006, G2019S); assay: ex vivo Western blot of LRRK2 pSer935, […] min after […] mg/kg i.p.; assay type: cell-based
T1 construct: endogenous LRRK2 in striatum of G2019S knock-in mice

[2] = molecular target: T2, LRRK2 (leucine-rich repeat kinase 2) (Mus musculus, UniProt Q5S006); assay: Western blot of LRRK2 pSer935 in NIH3T3 cells, […] min; also ex vivo mouse striatum and cortex; assay type: cell-based
T2 construct: endogenous LRRK2 in NIH3T3 cells
T2 sequence (Q5S006 whole entry): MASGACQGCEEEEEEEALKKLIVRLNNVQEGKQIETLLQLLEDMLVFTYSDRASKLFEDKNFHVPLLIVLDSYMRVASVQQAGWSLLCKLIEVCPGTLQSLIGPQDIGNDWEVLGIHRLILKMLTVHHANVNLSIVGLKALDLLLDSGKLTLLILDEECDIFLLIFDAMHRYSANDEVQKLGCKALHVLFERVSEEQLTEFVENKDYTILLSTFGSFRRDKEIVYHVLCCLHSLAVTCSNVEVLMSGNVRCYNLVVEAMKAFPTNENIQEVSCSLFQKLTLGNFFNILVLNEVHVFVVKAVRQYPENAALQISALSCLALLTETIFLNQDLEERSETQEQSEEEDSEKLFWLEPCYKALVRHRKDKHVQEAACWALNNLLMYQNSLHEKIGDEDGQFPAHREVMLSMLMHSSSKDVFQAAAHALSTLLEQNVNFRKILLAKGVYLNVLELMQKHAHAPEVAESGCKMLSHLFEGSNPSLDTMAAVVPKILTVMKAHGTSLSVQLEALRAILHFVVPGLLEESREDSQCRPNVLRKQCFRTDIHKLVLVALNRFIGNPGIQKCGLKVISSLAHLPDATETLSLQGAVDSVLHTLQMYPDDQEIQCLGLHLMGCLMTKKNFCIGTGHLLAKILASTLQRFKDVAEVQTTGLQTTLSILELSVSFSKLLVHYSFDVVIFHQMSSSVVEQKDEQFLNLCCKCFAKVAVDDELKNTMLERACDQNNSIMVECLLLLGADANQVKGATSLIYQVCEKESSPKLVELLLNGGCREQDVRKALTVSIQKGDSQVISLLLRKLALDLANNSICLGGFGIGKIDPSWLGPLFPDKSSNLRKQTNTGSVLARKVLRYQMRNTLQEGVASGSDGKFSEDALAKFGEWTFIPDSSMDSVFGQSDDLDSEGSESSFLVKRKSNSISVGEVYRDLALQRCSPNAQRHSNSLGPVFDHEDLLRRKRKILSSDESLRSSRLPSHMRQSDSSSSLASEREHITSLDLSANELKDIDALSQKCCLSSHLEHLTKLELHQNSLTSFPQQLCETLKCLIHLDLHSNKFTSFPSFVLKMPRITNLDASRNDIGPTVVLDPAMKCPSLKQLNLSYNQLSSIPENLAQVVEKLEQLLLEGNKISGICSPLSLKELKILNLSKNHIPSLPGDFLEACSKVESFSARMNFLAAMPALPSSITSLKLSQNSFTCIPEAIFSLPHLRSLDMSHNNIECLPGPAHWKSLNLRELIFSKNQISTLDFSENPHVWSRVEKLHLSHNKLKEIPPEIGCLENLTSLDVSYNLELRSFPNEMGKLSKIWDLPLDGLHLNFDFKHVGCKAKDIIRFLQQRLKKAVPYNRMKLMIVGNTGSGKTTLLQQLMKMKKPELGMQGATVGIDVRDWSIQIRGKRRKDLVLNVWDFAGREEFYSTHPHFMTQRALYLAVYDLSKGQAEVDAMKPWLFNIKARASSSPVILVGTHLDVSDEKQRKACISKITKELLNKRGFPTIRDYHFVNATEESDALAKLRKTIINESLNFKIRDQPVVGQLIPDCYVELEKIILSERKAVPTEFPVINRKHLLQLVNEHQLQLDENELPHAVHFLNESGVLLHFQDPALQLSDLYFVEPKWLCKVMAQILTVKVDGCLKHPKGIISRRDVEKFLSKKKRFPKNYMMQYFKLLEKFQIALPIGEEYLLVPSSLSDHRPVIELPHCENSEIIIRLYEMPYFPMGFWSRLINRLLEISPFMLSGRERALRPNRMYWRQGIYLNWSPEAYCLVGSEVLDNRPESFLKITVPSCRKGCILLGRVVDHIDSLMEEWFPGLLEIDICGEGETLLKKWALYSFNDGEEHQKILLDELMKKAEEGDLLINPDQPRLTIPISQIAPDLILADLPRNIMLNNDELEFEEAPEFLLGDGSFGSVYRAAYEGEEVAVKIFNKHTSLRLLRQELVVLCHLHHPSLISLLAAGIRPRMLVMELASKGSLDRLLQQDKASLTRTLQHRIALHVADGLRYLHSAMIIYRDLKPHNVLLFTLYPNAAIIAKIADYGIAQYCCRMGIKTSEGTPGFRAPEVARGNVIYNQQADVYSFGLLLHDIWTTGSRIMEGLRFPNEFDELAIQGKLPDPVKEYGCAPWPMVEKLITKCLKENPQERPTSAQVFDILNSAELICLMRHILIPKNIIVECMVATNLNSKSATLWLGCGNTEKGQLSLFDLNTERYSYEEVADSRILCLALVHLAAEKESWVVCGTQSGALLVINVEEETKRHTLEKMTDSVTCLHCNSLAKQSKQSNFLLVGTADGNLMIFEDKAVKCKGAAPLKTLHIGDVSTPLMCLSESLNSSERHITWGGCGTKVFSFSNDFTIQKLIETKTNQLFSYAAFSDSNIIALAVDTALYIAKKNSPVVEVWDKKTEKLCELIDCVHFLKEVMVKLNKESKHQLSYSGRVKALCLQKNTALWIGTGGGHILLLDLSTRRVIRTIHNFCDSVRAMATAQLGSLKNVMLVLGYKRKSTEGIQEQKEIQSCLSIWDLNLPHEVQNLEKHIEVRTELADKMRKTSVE

T1 sequence (Q5S006 whole entry G2019S): as the sequence (Q5S006 whole entry) above, with G2019S counted along it

| pIC50 [2] | Compound | ex vivo Western blot of LRRK2 pSer935, 20 min after 1 mg/kg i.p. [1] |
| --- | --- | --- |
|  | Cc1cncc2cccc(S(=O)(=O)N3CCCNC[C@@H]3C)c12 [H-1152, (S)-(+)-2-methyl-1-[(4-methyl-5-isoquinoline)sulfonyl]-homopiperazine] | H-1152 attenuated endogenous LRRK2 phosphorylation at Ser935 in striatum but not cerebral cortex of G2019S knock-in (G2019S KI) mice |
| 9.42 | CC(=O)N1CCc2[nH]c(/C=C3\C(=O)Nc4ccc(OC(C)C)cc43)cc2C1 [Nov-LRRK2-11] |  |
